Literature values in article PMC11982978, “Cancer hotspot mutations rewire ERK2 specificity by selective exclusion of docking interactions” (The Journal of Biological Chemistry, 2025).

Test system: WT ERK2
Settings: selective conditions (-His); hits Z > 3; average of three screens; cited from earlier work
Source text: Supplement mmc2.xlsx, sheet "WT Hits" | column: Z-score

Sequence | Z-score (ES) of hit sequences, WT ERK2 Y2H screen
HFRHKSQLRLHLRQ [BCL6, D-site 14-mer in ELK1 Y2H prey] | 5.64
KGKSKRKKDLRISC [MAP2K3, D-site 14-mer in ELK1 Y2H prey] | 10.02
SRKQRQPARLQLPA [ZBTB45, D-site 14-mer in ELK1 Y2H prey] | 3.70
GRPLRLPPPLRLLR [GNAS, D-site 14-mer in ELK1 Y2H prey] | 3.08
IKMKPKPRILSIKS [MAP9, D-site 14-mer in ELK1 Y2H prey] | 3.08
TKMQKKVLSLRLPC [RIN2, D-site 14-mer in ELK1 Y2H prey] | 7.27
VVALRKKQQLAIGP [AGAP3, D-site 14-mer in ELK1 Y2H prey] | 6.33
LRVRKARPQLILSR [NOL9, D-site 14-mer in ELK1 Y2H prey] | 4.35
KLDKSPFVVVSVVG [TTC28, D-site 14-mer in ELK1 Y2H prey] | 3.83
LKQRRRAQKLHFLQ [DDX54, D-site 14-mer in ELK1 Y2H prey] | 3.41
KTKRNKILKLKFPR [ATP8B1, D-site 14-mer in ELK1 Y2H prey] | 3.62
FTLKAKRPGLRLPD [FLRT1, D-site 14-mer in ELK1 Y2H prey] | 4.42
PDGKKRRKVLALPS [RBM28, D-site 14-mer in ELK1 Y2H prey] | 5.03
KRSKKNSLALSLTA [ESR1, D-site 14-mer in ELK1 Y2H prey] | 5.11
RRQHRPPALLTLYP [DOCK6, D-site 14-mer in ELK1 Y2H prey] | 3.71
SPKWKNFKGLKLQW [MLXIP, D-site 14-mer in ELK1 Y2H prey] | 8.72
LQRKGGPTRLTLPS [CMIP, D-site 14-mer in ELK1 Y2H prey] | 4.12
RPRCRRQPRLRLPT [EPM2A, D-site 14-mer in ELK1 Y2H prey] | 13.05
GLTARRLLPLRLPP [MLYCD, D-site 14-mer in ELK1 Y2H prey] | 14.29
RKEVKRKKVVHMNK [RNF151, D-site 14-mer in ELK1 Y2H prey] | 6.59

Sequence | Z-score (ES) of hit sequences, WT ERK2 Y2H screen
PGRRQNTIVVKVPG [BANP, D-site 14-mer in ELK1 Y2H prey] | 5.25
EEEFRKLTNVRIMK [PTPRE, D-site 14-mer in ELK1 Y2H prey] | 8.60
EKIKVKSTEVEILE [MUM1, D-site 14-mer in ELK1 Y2H prey] | 3.47
PTKTKPKKLLFLGS [SMG1, D-site 14-mer in ELK1 Y2H prey] | 3.46
PGKRGRPRKLKLCK [MGA, D-site 14-mer in ELK1 Y2H prey] | 8.03
AKRRIANLKIQLAK [WWC1, D-site 14-mer in ELK1 Y2H prey] | 3.55
RQKKERPHMLNLSG [SYDE2, D-site 14-mer in ELK1 Y2H prey] | 5.14
PLPRRTRRPLLLPR [HPS4, D-site 14-mer in ELK1 Y2H prey] | 7.88
RKRSKPKLKLKIIN [KMT2C, D-site 14-mer in ELK1 Y2H prey] | 17.15
ITKAIRDRLLFLRQ [NBAS, D-site 14-mer in ELK1 Y2H prey] | 3.64
KSRQKNPRSLCIQP [MTUS1, D-site 14-mer in ELK1 Y2H prey] | 4.97
PKGKNRPSSLNLDP [ARHGAP31, D-site 14-mer in ELK1 Y2H prey] | 3.62
ARGQRSVLQVPLPV [CRNKL1, D-site 14-mer in ELK1 Y2H prey] | 4.21
KKRKIPKLVLRINA [DENND2A, D-site 14-mer in ELK1 Y2H prey] | 11.21
DTPIRKKEELLFDD [FBF1, D-site 14-mer in ELK1 Y2H prey] | 3.49
LKQRTRPLLINLSK [MCTP2, D-site 14-mer in ELK1 Y2H prey] | 3.77
AAGRRAAPYLVLTA [TFR2, D-site 14-mer in ELK1 Y2H prey] | 3.19
NQKKPALKKLTLLP [IWS1, D-site 14-mer in ELK1 Y2H prey] | 4.19
SLARAKRPSVSFAE [SCARF1, D-site 14-mer in ELK1 Y2H prey] | 5.09
ALLRKINQVLLFLL [GLT8D2, D-site 14-mer in ELK1 Y2H prey] | 5.93

Sequence | Z-score (ES) of hit sequences, WT ERK2 Y2H screen
KKTRKLKIALALSD [PLCZ1, D-site 14-mer in ELK1 Y2H prey] | 3.78
RKKDRPRKHLTLNN [SP100, D-site 14-mer in ELK1 Y2H prey] | 3.83
KQRKLSPLRLSVSN [KMT2E, D-site 14-mer in ELK1 Y2H prey] | 4.49
CKLKMKPRPIAILQ [TTN, D-site 14-mer in ELK1 Y2H prey] | 7.96
KQGGRKPKPLWLSP [KIAA0556, D-site 14-mer in ELK1 Y2H prey] | 4.98
KTQRLDVAKVCLGN [IFT140, D-site 14-mer in ELK1 Y2H prey] | 4.26
PMKQKRKLRLYISN [SMARCD3, D-site 14-mer in ELK1 Y2H prey] | 6.57
EERKTKRPSLRLFG [PPARGC1A, D-site 14-mer in ELK1 Y2H prey] | 4.99
PKDKKRPTPLEIGY [PCLO, D-site 14-mer in ELK1 Y2H prey] | 4.93
KPLKKKPTPVLLPQ [SEC63, D-site 14-mer in ELK1 Y2H prey] | 3.34
KKGVKPKLVLNVTS [CMYA5, D-site 14-mer in ELK1 Y2H prey] | 4.91
QGKTKRPVDLKIKN [TAGAP, D-site 14-mer in ELK1 Y2H prey] | 3.38
NGRREKRKQLTLPS [TBX2, D-site 14-mer in ELK1 Y2H prey] | 10.21
SGDPRKPRQLTVGD [ZMYND15, D-site 14-mer in ELK1 Y2H prey] | 5.02
QVKLRSRTSLTLPR [RGL1, D-site 14-mer in ELK1 Y2H prey] | 4.63
PFGSRRSSAIGIEN [RAP1GAP, D-site 14-mer in ELK1 Y2H prey] | 5.61
PIKQKRKLRIFISN [SMARCD1, D-site 14-mer in ELK1 Y2H prey] | 4.04
RSVRKRSPWLQLPG [FCRLB, D-site 14-mer in ELK1 Y2H prey] | 3.88
